Reference: patent US11607557B2, “Devices and systems for treating pain based on light therapy” (Arizona Board of Regents on Behalf of the University of …, priority 2016, dated 2023)
Entries after “also recorded” stand apart in the source; their conditions may differ.

Experiments:
[1] = tested on: green LED-induced antinociception; experiment: Paw withdrawal latency (Hargreaves) after antagonists in green LED exposed naïve rats; assay type: in vivo, rat
From the text: Pathogen-free, adult male and female Sprague-Dawley as well as male Long Evans rats (weight at testing 250-350 g; Harlan-Sprague-Dawley, Indianapolis, Ind.) were housed in a climate-controlled room on a 12-h light/dark cycle and were allowed to have food and water ad libitum. All procedures were approved by the University of Arizona Animal Care and Use Committee and conform to the guidelines for the use of laboratory animals of the National Institutes of Health (publication no, 80-23, 1966). All behavioral experiments were conducted by experimenters blinded to the treatment conditions.
All visible spectrum LED flex strips were purchased from ledsupply.com (VT, USA). The specification of the LED were: (i) #LS-AC60-6-BL, 472 nanometer wavelength (i.e., blue), 8 watts, 120 Volts, 120 degree beam angle; (ii) #LS-AC60-6-GR, 525 nanometer wavelength (i.e., green), 8 watts, 120 Volts, 120 degree beam angle; and (iii) #LS-AC60-66-WH, white, 9.6 watts, 120 Volts, 120 degree beam angle. LED strips were affixed to the outside of clear plastic cages that housed the rats so as to avoid the strips from being chewed. Rats were exposed to the various LED in these cages with full access to food and water in a dark room devoid of any other source of light. Following behavioral assessment, the rats were returned to their cages for additional LED exposure. At the end of daily testing, the rats were returned to their regular animal room where they were exposed to regular room light (regular florescent bulbs). A lux meter (Tondaj LX1010B, Amazon.com) was used to determine the illuminance and luminous emittance of the LED strips.
(§1) The method of Hargreaves et al. was used. Rats were acclimated within Plexiglas enclosures on a clear glass plate maintained at 30° C. A radiant heat source (high-intensity projector lamp) was focused onto the plantar surface of the hind paw. When the paw was withdrawn, a motion detector halted the stimulus and a timer. A maximal cutoff of 33.5 sec was used to prevent tissue damage.
For intrathecal drug administration, rats were chronically implanted with catheters as described by Yaksh and Rudy. Rats were anesthetized with isoflurane and placed in a stereotactic device. The occipital muscles were separated from their occipital insertion and retracted caudally to expose the cisternal membrane at the base of the skull. Polyethylene tubing was passed caudally from the cisterna magna to the level of the lumbar enlargement. Animals were allowed to recover and were examined for evidence of neurologic injury. Animals with evidence of neuromuscular deficits were excluded.
The antinociceptive effects of green LED indicates a possible involvement of endogenous mediators linked to pain, such as opioids and cannabinoids. To test this hypothesis naïve rats exposed to green LED for eight hours daily for five days were administered antagonists and then PWLs were measured 20-30 minutes later.
Thus, to elucidate the role of die adrenergic system, several adrenergic receptors antagonists were tested. […] Additionally, rats exposed to green LED maintained regular grooming behaviors, which is in contrast to diminished grooming observed in stressed rats.

[2] = tested on: rostral ventromedial medulla (RVM); experiment: Lidocaine microinjection into the RVM, paw withdrawal latency in green LED exposed rats; assay type: in vivo, rat; conditions: 2% lidocaine microinjected into the RVM of naïve rats exposed to green LED
Protocol: as §1
Rats received a bilateral guide cannula (26 GA, #C235-1.2 mm, Plastics One Inc.) directed to the RVM. The cannula was placed at: −11.0 from bregma, −7.5 mm from the dura and 0.6 mm on either side of the midline. Injections were made by expelling 0.5 μl through an injection cannula protruding 1 mm beyond the tip of the guide. Cannula placement was confirmed with 0.5 μl Evans Blue injected into both sides of the cannula and microscopic examination of medullary sections. Acute single injections into the RVM were performed by inserting an injector (Plastics One Inc) attached to a 2 μl Hamilton syringe and expelling 0.5 μl at the same coordinates.
Neurons within the rostral ventromedial medulla (RVM) have been reported to project to the spinal or medullary dorsal horns to directly or indirectly enhance or diminish nociceptive traffic. As this descending modulatory circuit is “opioid-sensitive”, next the contribution of the RVM in the green LED-induced antinociceptive response was examined.

[3] = tested on: rats; experiment: HIV sensory neuropathy model, thermal hyperalgesia (Hargreaves test); assay type: in vivo, rat; conditions: intrathecal gp120, 300 ng
Protocol: as §1
(§2) Thermal hyperalgesia and mechanical allodynia are produced by intrathecal administration of the human immunodeficiency virus-1 (HIV-1) envelope glycoprotein, gp120 [60]. Seven days after implantation of an intrathecal catheter, baseline behavioral measurements were obtained and then rats were randomly assigned to two groups. On days 10 and 13, one group of rats were injected i.t. with 300 ng gp120 in a final volume of 20 µl in 0.9% saline while the other group were injected in a similar fashion with 0.9% saline.

[4] = tested on: rats; experiment: HIV sensory neuropathy model, mechanical allodynia (von Frey test); assay type: in vivo, rat; conditions: intrathecal gp120, 300 ng, compared to pre-gp120 baseline
Protocol: The assessment of tactile allodynia (i.e., a decreased threshold to paw withdrawal after probing with normally innocuous mechanical stimuli) consisted of testing the withdrawal threshold of the paw in response to probing with a series of calibrated fine (von Frey) filaments. Each filament was applied perpendicularly to the plantar surface of the paw of rats held in suspended wire mesh cages. Withdrawal threshold was determined by sequentially increasing and decreasing the stimulus strength (the “up and down” method), and data were analyzed with the nonparametric method of Dixon, as described by Chaplan et al and expressed as the mean withdrawal threshold.
as §2

[5] = calcium indicator, λex 340, 380 nm; cited from earlier work
[6] = alpha- and beta-adrenergic receptor antagonists, i.p. (doses in Table 1), green LED exposed rats
[7] = cannabinoid receptor antagonists, systemic (i.p.) 1 mg/kg, green LED eight hours daily for five days, 1 mg/kg
[8] = intrathecal (i.t.), 20 μg, green LED eight hours daily for five days, PWL 20-30 minutes after antagonist

Q: For `Cc1ccc(N(CC2=NCCN2)c2cccc(O)c2)cc1` [Phentolamine], which “effect on green LED-induced antinociception (paw withdrawal latency)” value (“effect” for short) [1, 6] is on record?
A: failed to prevent or reverse the antinociceptive effect of green LED; also recorded: failed to reverse green LED-induced thermal analgesia

Q: Which “effect” value [2] does the source give for `CCN(CC)CC(=O)Nc1c(C)cccc1C` [lidocaine] here?
A: prevented the subsequent development of antinociception; also recorded: reversed green LED-induced thermal analgesia

Q: With `COc1ccc(C(=O)c2c(C)n(CCN3CCOCC3)c3cc(I)ccc23)cc1` [AM630] as the molecule, how does the “effect” value [1, 7] read?
A: unaffected

Q: Which “effect” value [1, 6] does the source give for `CC(C)NCC(O)COc1cccc2ccccc12` (centres unmarked) [propranolol] here?
A: failed to prevent or reverse the antinociceptive effect of green LED; also recorded: failed to reverse green LED-induced thermal analgesia

Q: For `C=CCN1CC[C@]23c4c5ccc(O)c4O[C@H]2C(=O)CC[C@@]3(O)[C@H]1C5` [Naloxone], which “effect” value [1, 8] is on record?
A: reversed, to baseline levels

Q: What about the “effect” value ([1]; intrathecal (i.t.), 20 μg, green LED eight hours daily for five days, PWL 20-30 minutes after antagonist, listed as naloxone) of the same molecule?
A: reversed green LED-induced thermal analgesia

Q: What about the “effect” value ([1]; naloxone systemic (printed subcutaneous / 20 mg/kg i.p.), green LED eight hours daily for five days, PWL 20-30 minutes after antagonist, 20 mg/kg) of the same molecule?
A: reversed, to baseline levels

Q: And the “effect” value ([1]; naloxone systemic (printed subcutaneous / 20 mg/kg i.p.), green LED eight hours daily for five days, PWL 20-30 minutes after antagonist, listed as naloxone, 20 mg/kg)?
A: reversed green LED-induced thermal analgesia

Q: For `CC(COc1ccccc1)N(CCCl)Cc1ccccc1` (centres unmarked) [Phenoxybenzamine], which “effect” value [1, 6] is on record?
A: failed to prevent or reverse the antinociceptive effect of green LED; also recorded: failed to reverse green LED-induced thermal analgesia

Q: For `Cc1c(C(=O)NN2CCCCC2)nn(-c2ccc(Cl)cc2Cl)c1-c1ccc(I)cc1` [AM251], which “effect” value [1, 7] is on record?
A: reversed the green LED-induced antinociception; also recorded: reversed green LED-induced thermal analgesia

Q: What does the source list for “gp120: viral envelope glycoprotein 120 of HIV-1, recombinant HIV-1 IIIB gp120, NIH AIDS Reagent Program”?
A: thermal hyperalgesia (paw withdrawal latency) [3]: produced a thermal hyperalgesia; mechanical allodynia (paw withdrawal threshold) [4]: lowered thresholds for paw withdrawals compared to baseline

Q: With `CC(=O)OCOC(=O)CN(CC(=O)OCOC(C)=O)c1ccc(C)cc1OCCOc1cc2cc(-c3ncc(C(=O)OCOC(C)=O)o3)oc2cc1N(CC(=O)OCOC(C)=O)CC(=O)OCOC(C)=O` [Fura-2AM] as the molecule, how does the Kd [5] read?
A: 25 µM

Q: Which “effect” value [1, 8] does the source give for `CN1CC[C@]23c4c5ccc(O)c4O[C@H]2[C@@H](O)C=C[C@H]3[C@H]1C5` [morphine] here?
A: reversed the antinociception
